These results are taken from ChEMBL document CHEMBL1201862, “PubChem BioAssay data set” (2004).

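How tested: cells in 96-well plates exposed to compound for 48 hours at five concentrations. GI50 = concentration required for 50% inhibition of growth.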 Active and inactive are the calls of the source. No stated cut-off is given here; in the data, active = GI50 up to about 1.1 µM and inactive = higher.

Assay in all cases: inhibition of tumour cell growth, NCI panel, 48 h
The subject of test [1] is HOP-92.
Test [2] has as its system M14.
Test [3] relates to OVCAR-4.
In test [4] the test system is LOX IMVI.
The subject of test [5] is COLO 205.
In test [6] the test system is UACC-257.
In test [7] the test system is KM-20L2.
Test [8] deals with NCI-H23.
The test system of test [9] is TK-10.
The subject of test [10] is SNB-19.
The subject of test [11] is OVCAR-8.
Test [12] relates to OVCAR-5.
Test [13] has as its system SK-MEL-5.
The test system of test [14] is A549.
Test [15] relates to KM12.
The test system of test [16] is HCC 2998.

Consider `COC(=O)[C@H]1COC(=S)N1C(=O)[C@@H](C)[C@H](O)C(C)C`, for which the GI50 in [1] is > 100 µM (inactive); in test [2], > 100 µM (inactive); in test [3], > 100 µM (inactive); in test [4], 57.4 µM (inactive); in [5], > 100 µM (inactive); in [6], > 100 µM (inactive). The GI50 in test [7], in [8], in test [9], in test [10], in [11] and in test [12] was > 100 µM (inactive) each time. The GI50 in test [13], in test [14], in [15] and in test [16] was > 100 µM (inactive) throughout.

Regarding `COC(=O)C(C(=O)C(=O)Nc1ccc(N)cc1[N+](=O)[O-])c1nc2ccc(Cl)cc2nc1O` (stereo not given), the GI50 in test [1] is 52.7 µM (inactive); in test [2], > 100 µM (inactive); in [3], > 100 µM (inactive); in test [4], > 100 µM (inactive); in test [5], > 100 µM (inactive); in test [6] it was > 100 µM (inactive). The GI50 in test [7], in test [8], in [9], in test [10], in [11] and in [12] was > 100 µM (inactive) each time. In addition, the GI50 is 95.5 µM (inactive) in [13], > 100 µM (inactive) in test [14], > 100 µM (inactive) in [15] and > 100 µM (inactive) in test [16].

Consider `O=C(CC1Sc2ccccc2NC1=O)Nc1cc(Cl)ccc1Cl` (stereo not given), for which the GI50 in test [1], in test [2], in test [3], in test [4], in test [6] and in [7] was > 100 µM (inactive) each time. Also, the GI50 in [8], in [9], in test [10], in test [11], in test [12] and in test [13] was > 100 µM (inactive) in each case. For the same molecule, the GI50 in test [14] and in test [16] was > 100 µM (inactive) throughout.

For `O=C(CCc1nnc(S)[nH]1)Nc1cc(Cl)ccc1Cl`, the GI50 in test [1], in test [2], in test [3], in test [5], in test [6] and in test [7] was > 100 µM (inactive) throughout. The GI50 in [8], in test [9], in test [10], in [11], in [12] and in test [13] was > 100 µM (inactive) each time. Besides, the GI50 in test [14], in test [15] and in test [16] was > 100 µM (inactive) in each case.

`Cc1cccc(C(C)(C)C)c1NC(=O)CC1C(=O)Nc2ccccc2S1(=O)=O` (stereo not given): the GI50 in [1] was 11.5 µM (inactive); in test [2], 12.8 µM (inactive); in [3] it was 11.4 µM (inactive); in test [4] it was 5.98 µM (inactive); in [6], 27.6 µM (inactive); in test [7], 9.29 µM (inactive). Further, the GI50 in test [8] is 5.38 µM (inactive); in test [9], 20.5 µM (inactive); in test [10] it was 15.5 µM (inactive); in [11] it was 10.6 µM (inactive); in test [12], 13 µM (inactive); in test [13], 12.1 µM (inactive). Also, the values for the GI50 in test [14] and in [16] were 13.6 µM (inactive) and 8.11 µM (inactive), respectively.

In the case of `CC(=O)OC(C)(C)/C=C/C(=O)[C@](C)(O)[C@H]1[C@H](O)C[C@@]2(C)[C@@H]3CC=C4[C@@H](C[C@H](O)[C@H](O)C4(C)C)[C@]3(C)C(=O)C[C@]12C`, the GI50 is 0.22 µM (active) in test [1]; 0.442 µM (active) in test [2]; 0.331 µM (active) in test [3]; 0.303 µM (active) in test [4]; 0.31 µM (active) in test [5]; 0.638 µM (active) in [6]. Moreover, the GI50 in test [7] was 0.513 µM (active); in [8] it was 0.324 µM (active); in test [9], 0.548 µM (active); in [10], 0.7 µM (active); in test [11] it was 0.33 µM (active); in [12], 0.883 µM (active). Besides, the GI50 is 0.701 µM (active) in test [13], 0.822 µM (active) in [14], 0.467 µM (active) in test [15] and 0.822 µM (active) in [16].

As for `C[C@]12CCc3nonc3C1CC[C@@H]1C2CC[C@]2(C)NC(=O)CCC12` (stereo not given in full), the GI50 in [1], in test [2], in test [3], in [4], in test [5] and in test [6] was > 100 µM (inactive) in each case. The GI50 in test [7], in test [8], in test [9], in test [10], in [11] and in [12] was > 100 µM (inactive) each time. The GI50 in test [13], in test [14] and in [15] was > 100 µM (inactive) in each case.

Regarding `ClCCNCCNCCCl.ClCCNCCNCCCl.[O-][Cl+3]([O-])([O-])O`, the GI50 in test [1] is 39.7 µM (inactive); in test [2], 19.5 µM (inactive); in test [3] it was 22.3 µM (inactive); in test [4], 20 µM (inactive); in [5], 40.7 µM (inactive); in [6], 27 µM (inactive). For the same molecule, the GI50 in [7] is 67.3 µM (inactive); in test [8], 27.9 µM (inactive); in test [9], 49.9 µM (inactive); in test [10], > 100 µM (inactive); in test [11] it was 18.9 µM (inactive); in test [12] it was 24.9 µM (inactive). Also, the GI50 in [13] was 23 µM (inactive); in [14] it was 73.5 µM (inactive); in [15] it was > 100 µM (inactive); in [16], > 100 µM (inactive).

As for `CCCCCCCCCCCCCCCC(=O)NCC(OCC)OCC`, the GI50 in [1], in test [2], in test [3], in test [4], in [5] and in test [6] was > 100 µM (inactive) throughout. The GI50 in test [7], in [8], in test [9], in test [10], in test [11] and in [12] was > 100 µM (inactive) each time. The GI50 in [13], in [14], in test [15] and in test [16] was > 100 µM (inactive) throughout.

As to `[O-][S+]1C(=c2ccc(=C3Sc4ccccc4S3)cc2)Sc2ccccc21` (stereo not given), the GI50 in test [1] was > 67.3 µM (inactive); in [2], 15.1 µM (inactive); in test [3] it was 46.8 µM (inactive); in test [4], 17.9 µM (inactive); in [5] it was > 100 µM (inactive); in test [6], > 92.5 µM (inactive). For the same molecule, the GI50 in test [7] is 17.3 µM (inactive); in test [8], 16.3 µM (inactive); in test [9], > 100 µM (inactive); in test [10], 17 µM (inactive); in [11], 17.9 µM (inactive); in [12], 18.3 µM (inactive). Besides, the GI50 was 19.2 µM (inactive) in [13], 17.6 µM (inactive) in test [14], 17.4 µM (inactive) in test [15] and 16 µM (inactive) in test [16].

Take `CC(C)NC(=O)OCc1nnn2c1C(OC(=O)NC(C)C)CC2` (stereo not given): the GI50 in [1], in test [2], in test [3], in [5], in test [6] and in [7] was > 100 µM (inactive) in each case. The GI50 in test [8], in test [9], in [10], in [11], in [12] and in test [13] was > 100 µM (inactive) throughout. The GI50 in test [14], in test [15] and in test [16] was > 100 µM (inactive) each time.

Take `O=C(NC(=O)c1cc2cc(Br)cc(Br)c2oc1=O)Oc1ccccc1`: the GI50 was > 100 µM (inactive) in test [1]; > 100 µM (inactive) in [2]; > 100 µM (inactive) in test [3]; 63.2 µM (inactive) in [4]; > 100 µM (inactive) in test [5]; 59.2 µM (inactive) in [6]. The GI50 in [7] was > 100 µM (inactive); in test [8], > 100 µM (inactive); in test [9], 47.9 µM (inactive); in test [10], 59.8 µM (inactive); in test [11], 46.5 µM (inactive); in test [12], > 100 µM (inactive). The GI50 in test [13] is > 100 µM (inactive); in test [14], > 100 µM (inactive); in test [15] it was 93.8 µM (inactive); in test [16], > 100 µM (inactive).

Consider `O=C1OC2(OC2c2ccccc2)c2ccccc21` (stereo not given), for which the GI50 in test [1], in test [2], in test [4], in test [5], in [6] and in test [7] was > 100 µM (inactive) each time. The GI50 in test [8], in test [9], in [10], in [11], in test [12] and in test [13] was > 100 µM (inactive) throughout. Moreover, the GI50 in test [14], in test [15] and in test [16] was > 100 µM (inactive) throughout.
